Assay results published in patent US20060019565A1, “Method for delivering biologically active substnces” (priority 2002, published 2006).

Assays:
[1] = Release of the hydroxyl compound by hydrolysis from a treated substrate (PAN fabric, cotton, paper); type: physicochemical; conditions: for release of the active hydroxyl compound upon hydrolysis: concentrated aqueous formulation sprayed on cellulosic substrate (paper, cotton), air-dried
Method: After the treatment with the aqueous solution of the ester compound a slow release of the biologically active hydroxyl compound on the substrate starts through hydrolysis. The velocity of this process can easily be controlled through pH and/or temperature variations.
II.1 A sample of 15 g polyacrylonitrile (PAN) fabric (Dralon 5-4301), pretreated with a commercial wetting agent (TINOVETIN® JU, supplied by Ciba Specialty Chemicals) at 60° C. during 10 min and rinsed with cold water, is fixed on a support material and in an exhaust dyeing machine of type Ahiba treated with the following composition: • 7.5 ml aqueous Na2SO4 solution (100 g/l) • 2.25 ml aqueous sodium acetate solution (100 g/A) • 2.25 ml 80% acetic acid • 233.5 ml water • 3.0 ml cationic retarder (TINEGAL® MR, Ciba Specialty Chemicals) (100 g/l) • 1.5 ml aqueous solution of compound of formula (101) (100 g/l)
The temperature is kept at 98° C. for 20 min; the pH of the bath after cooling to room temperature is 4.7. The sample of PAN fabric is rinsed with cold water and subsequently dried in the air. The resulting PAN fabric contains the latent menthol.
(§1) II.5 A padding bath is prepared containing 20 g/l of compound (101) and is applied at 20-25° C. with a pick-up rate of 70-80% on cotton. After drying (65 to 15 s at 70-130° C.), the resulting fabric contains the latent menthol.
II.8 A concentrated aqueous formulation of compound (101) is sprayed on a cellulosic substrate (e.g. paper, cotton).

[2] = Antimicrobial protection of treated cotton fibre
Method: as §1
II.6 The same treatment is made on cotton using compound (102) in place of (101).
II.7 A cotton fabric is similarly treated with an aqueous formulation of compounds of formula (101) and (102).

[3] = cotton treated with aqueous formulation of (101) and (102) together
[4] = cotton, padding bath 20 g/l, 20-25° C., pick-up 70-80%

Row | regeneration of menthol from treated fabric ([1]; PAN fabric, exhaust treatment 98° C. for 20 min, bath pH 4.7-5.2, velocity of release controlled by pH) | SMILES | release of the active hydroxyl compound upon hydrolysis [1] | release of the active hydroxyl compound from treated fabric [1, 3] | release of the active hydroxyl compound from treated fabric [1, 4] | antimicrobial protection ([2]; cotton padded with compound (102) alone) | antimicrobial protection [2, 3]
1 | gradually regenerated | CC1CCC(C(C)C)C(OC(=O)C[N+](C)(C)CCN(C)C)C1.[Cl-] (stereo not drawn) [compound 101] | releases menthol upon hydrolysis | slowly released | gradually regenerated |  | 
2 |  | CN(C)CC[N+](C)(C)CC(=O)Oc1cc(Cl)ccc1Oc1ccc(Cl)cc1Cl.[Cl-] [compound 102] | releases triclosan upon hydrolysis | slowly released | slowly released | good antimicrobial protection over time | good antimicrobial protection over time
